Where two headings read alike, the source gives them in different places.
Tests used:
[1] = test system: human eNPP1; test: Resistance to degradation by human eNPP1; format: in vitro ADME; details: after 20 min, 37 °C, pH 8.5
[2] = target: T1, turkey P2Y1 receptor (Meleagris gallopavo, UniProt P49652); details: read-out: EC50 at P2Y1R, cited from earlier work
[3] = test system: isolated rat pancreas; details: listed as IA; cited from earlier work
[4] = test system: insulin secretion; details: cited from earlier work
[5] = Chemical stability at acidic pH 1.4; format: physicochemical; details: pH 1.4, 37 °C, pseudo-first-order model
[6] = test system: blood glucose levels; test: Oral glucose tolerance test in naive mice; format: in vivo, mouse; details: OGTT; for effect on blood glucose levels: 30 mg/kg iv
[7] = target: T1, turkey P2Y1 receptor; test: Increase in [Ca2+]i in 1321N1 astrocytoma cells expressing turkey P2Y1 receptor; format: cell-based
[8] = test system: P2Y2 receptor; test: Agonist activity at P2Y2 receptor; format: cell-based; details: data not shown
[9] = test system: P2Y4 receptor; test: Agonist activity at P2Y4 receptor; format: cell-based; details: data not shown
[10] = test system: P2Y6 receptor; test: Agonist activity at P2Y6 receptor; format: cell-based; details: data not shown
[11] = test system: blood glucose levels; test: Oral glucose tolerance test in naive rats; format: in vivo, rat; details: OGTT, 30 mg/kg iv, within 45 min, saline 155 mg/dL
[12] = test system: blood glucose levels; test: Glucose tolerance test in STZ diabetic mouse model; format: in vivo; details: STZ diabetic mice, 30 mg/kg iv
[13] = test system: blood glucose levels; test: Glucose tolerance test in db+/db- diabetic mouse model; format: in vivo; details: db+/db− mice, 30 mg/kg iv
[14] = test system: tail bleeding; test: Tail-bleed assay in rats, oral administration; format: in vivo, rat; details: oral 30 mg/kg, 30 min before tail-cut
[15] = Solubility in aqueous media; format: physicochemical
[16] = read-out: EC50 at P2Y1R, increase in [Ca2+]i, human 1321N1 astrocytoma cells, turkey P2Y1R

T1 sequence (P49652 whole entry): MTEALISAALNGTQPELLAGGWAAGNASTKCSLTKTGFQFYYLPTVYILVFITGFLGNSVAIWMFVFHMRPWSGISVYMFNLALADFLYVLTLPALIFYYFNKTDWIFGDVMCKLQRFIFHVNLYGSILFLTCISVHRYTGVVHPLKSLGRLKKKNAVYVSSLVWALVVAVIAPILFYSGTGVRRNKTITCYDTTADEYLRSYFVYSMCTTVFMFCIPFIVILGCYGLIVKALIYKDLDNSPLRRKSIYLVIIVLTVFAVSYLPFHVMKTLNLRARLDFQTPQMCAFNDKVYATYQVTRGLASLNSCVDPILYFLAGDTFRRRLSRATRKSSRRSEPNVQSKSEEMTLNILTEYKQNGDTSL

Compound: CSc1nc(N)c2ncn([C@@H]3O[C@H](COP(=O)(O)OP(=O)(O)O)[C@@H](O)[C@H]3O)c2n1 [2-MeS-ADP, reference compound]
- % hydrolysis of human eNPP1 [1]: 16%

Compound: Nc1ncnc2c1ncn2[C@@H]1O[C@H](COP(=O)(O)OP(=O)(O)O)[C@@H](O)[C@H]1O [ADP, adenosine 5′ diphosphate, reference compound]
- % hydrolysis of human eNPP1 [1]: 25%

Compound: BP(=O)(OCC1OC(n2cnc3c(N)ncnc32)C(O)C1O)OP(=O)(O)OP(=O)(O)OCC1OC(n2cnc3c(N)ncnc32)C(O)C1O (stereo not drawn) [Ap3(α-B)A]
- EC50 ([2]; first-named (A) isomer): 760 nM
- EC50 ([2]; second-named (B) isomer): 800 nM

Compound: [BH3-][P@@](=O)(OC[C@H]1O[C@@H](n2cnc3c(N)nc(SC)nc32)[C@H](O)[C@@H]1O)OP(=O)([O-])OP(=O)([O-])[O-].[Na+].[Na+].[Na+].[Na+] [analogue 1A, 2-methylthio-ATP(α-B)]
- increase of insulin secretion over basal secretion [3]: up to 9 fold
- insulin secretion in vivo [4]: failed to induce insulin secretion in vivo

Compound: [BH3-][P@@](=O)(OC[C@H]1O[C@@H](n2cnc3c(N)ncnc32)[C@H](O)[C@@H]1O)OP(=O)([O-])[O-].[Na+].[Na+].[Na+] [analogue 2A, ADP(α-B)]
- % hydrolysis of human eNPP1 [1]: 5%

Compound: [BH3-]P(=O)(OC[C@H]1O[C@@H](n2cnc3c(N)nc(SC)nc32)[C@H](O)[C@@H]1O)OP(=O)([O-])[O-].[Na+].[Na+].[Na+] (stereo partly shown) [analogue 3, 2-Methylthioadenosine 5′-O-(′-Borano)diphosphate]
- hydrolysis rate constant at pH 1.4 [5]: 2 × 10^−5 s^−1
- effect on blood glucose levels [6]: less effective than analogue 3A alone

Compound: [BH3-][P@@](=O)(OC[C@H]1O[C@@H](n2cnc3c(N)nc(SC)nc32)[C@H](O)[C@@H]1O)OP(=O)([O-])[O-].[Na+].[Na+].[Na+] [analogue 3A, 2-Methylthioadenosine 5′-O-(′-Borano)diphosphate, A Isomer]
- EC50 [7]: 38 nM
- agonist activity at P2Y2 receptor [8]: no activity
- agonist activity at P2Y4 receptor [9]: no activity
- agonist activity at P2Y6 receptor [10]: no activity
- % hydrolysis of human eNPP1 [1]: 4%
- blood glucose level after glucose load [11]: ca. 87 mg/dL
- effect on blood glucose levels, dose comparison ([6]; 10 and 30 mg/kg iv): higher dose being more effective at reducing the glucose load
- effect on blood glucose levels [12]: lower blood glucose levels to normal values
- effect on blood glucose levels [13]: lower blood glucose levels to normal values
- bleeding time [14]: increased
- tail bleeding blood volume [14]: increased
- solubility in aqueous media [15]: highly soluble

Compound: [BH3-][P@](=O)(OC[C@H]1O[C@@H](n2cnc3c(N)nc(SC)nc32)[C@H](O)[C@@H]1O)OP(=O)([O-])[O-].[Na+].[Na+].[Na+] [analogue 3B, 2-Methylthioadenosine 5′-O-(′-Borano)diphosphate, B Isomer]
- effect on blood glucose levels [6]: ineffective

Compound: P1-Borano P1,P3-5′-Di-2-methylthioadenosine 5′-Triphosphate [analogue 4]
- fold increase in potency at P2Y1R by MeS substitution at C2 ([7]; analogue 4 isomers vs Ap3(α-B)A isomers): 4.6 fold

Compound: P^1-Borano P^1,P^3-5′-Di-2-methylthioadenosine 5′-Triphosphate, A Isomer [analogue 4A]
- EC50 [7, 16]: 140 nM

Compound: P^1-Borano P^1,P^3-5′-Di-2-methylthioadenosine 5′-Triphosphate, B Isomer [analogue 4B]
- EC50 [7, 16]: 190 nM

— PMC4354947 (Journal of medicinal chemistry, 2012)
